Data reported in patent US20160089371A1, “Combination of Kinase Inhibitors and Uses Thereof” (INTELLIKINE, LLC, priority 2013, published 2016).

Experiments:
[1] = test system: Akt and S6 phosphorylation; assay: Western blot of PI3K pathway phosphorylation (Akt, S6) in cancer cells; type: cell-based
[2] = test system: tumor cells harboring PI3K α mutations; assay: Proliferation of tumor cells with or without PI3K α mutations; type: cell-based; conditions: FIG. 13
[3] = test system: PI3K pathway in MDA-MB-361, MDA-MB-453 and SK-Br3 cells; assay: PI3K pathway Western blot in cell lines with elevated PI3Kα activity; type: cell-based, human; conditions: 2 h treatment; MDA-MB-361, MDA-MB-453, SK-Br3
Experimental: Cells comprising one or more mutations in PI3Kα, including but not limited to breast cancer cells (e.g., MDA-MB-361, T47D, SKOV-3), and cells comprising one or more mutations in PTEN including but not limited to prostate cancer cells (e.g., PC3), are typically grown in cell growth media such as DMEM supplemented with fetal bovine serum and/or antibiotics, and grown to confluency. Cells are then treated with various concentrations of test compound for about 2 hours and subsequently lysed in cell lysis buffer. Lysates are subjected to SDS-PAGE followed by Western blot analysis to detect downstream signaling markers, including but not limited to pAKT(S473), pAKT(T308), pS6, and p4E-BP1.
MDA-MB-361(PIK3CA-E545K), MDA-MB-453 (PIK3CA-H1047R), and SK-Br3 (Her2) cells were treated with various concentrations of Compound A for 2 h and subsequently lysed. Lysates were subjected to SDS-PAGE followed by Western blot analysis as described above to detect downstream pathway markers.

[4] = test system: MDA-MB-361 (PI3Kα/HER2 carcinoma) tumors; assay: In vivo efficacy in xenogenic mouse model of breast cancer; set-up: species or system nude mice; conditions: 70 mg/kg Pan-PI3K inhibitor; 60 mg/kg compound A
Experimental: Blood glucose was monitored periodically following administration of treatment.
Treatment of tumors (MDA-MB-361) with compounds was discontinued on Day 30. Tumors were measured every 2-5 days.

[5] = test system: 786-O cells (non-mutated PI3Kα) tumors; assay: 786-O human kidney carcinoma xenograft; type: in vivo, mice; conditions: Compound A orally 60 and 120 mg/kg; 1 mg/kg (QD) oral solution
Experimental: Compound A was administered orally at 60 and 120 mg/kg and compound A was administered orally as a solution at 1 mg/kg (QD). For example, a PI3Kα inhibitor is compared to a kinase inhibitor with specificity for mTor. […] FIG. 6C also provides biochemical potency data for the two compared inhibitors. PI3 Kinase α, β, γ and δ activity was assayed using the PI3 Kinase HTRF® assay kit (Millipore Corporation). Purified recombinant PI3Kα, PI3Kβ, PI3Kγ and PI3Kδ were obtained from Millipore Corporation. […] Emission ratios were converted into percent inhibitions and imported into GraphPad Prism software. […] IC50 values were determined using a nonlinear regression model available in GraphPad Prism 5.

[6] = test system: PI3 kinase signaling pathway in MDA-MB-361, HCC-1419 and NCI-H1048 cells; assay: Cellular signaling immunoblot in human tumor cell lines; type: cell-based; conditions: single agents; Compound B 5-100 nM, Compound A 1 and 3 μM; 2 or 24 hours
Experimental: Compound A was synthesized at Intellikine and was supplied as a stock of 10 mM in 100% DMSO and diluted in the respective cell line's growth media.
Prior to treatment, cells were plated at 2×10^5 cells/well in 12-well plates in normal growth media and grown to 80% confluence. Cells were treated for 2 or 24 hours in a CO2 incubator set to 37° C. with normal growth media containing inhibitor diluted in DMSO.
Media was aspirated, cells were washed with 1×PBS, Ice cold 1× Cell Lysis Buffer was prepared from 10× stock and 100 μM 4-(2-Aminoethyl) benzenesulfonyl fluoride hydrochloride (AEBSF) andlmM sodium orthovanadate […] was added. Cells were lysed by adding 1× Cell Lysis Buffer (100 μL per well of 12-well plate of cells). Cells incubated on ice for 20 to 30 minutes to allow complete lysis, and lysates were transferred to microcentrifuge tubes, sonicated for 10 seconds, and subjected to microcentrifugation at 14,000×g for 10 minutes at 4° C. Cleared supernatants were transferred to fresh tubes, and stored at −20° C. for Western blot analysis. […] Molecular weight markers were loaded, the gel electrophoresed at 200V for 40 minutes.
The gels were electrotransferred to nitrocellulose membranes, and incubated in blocking buffer (Tris buffered saline plus 0.5% Tween-20 (TBS/T)+5% bovine serum albumin (BSA)) for 1 hour at room temperature. […]

[7] = Steady-state blood glucose (Example 42); type: in vivo, Mus musculus; conditions: Compound B 0.3 mg/kg, Compound A 60 mg/kg, alone or combined; returned to normal within an hour of dosing
Experimental: Blood glucose levels were measured via a tail knick using a FreeStyle® handheld blood glucose monitor (Abbott Laboratories) at 5, 15, 30, 60, and 90 minutes after the last dose (Day 29).

Structure (SMILES): Nc1nc2cc(-c3ccc4ncc(C(=O)N5CCOCC5)n4c3)ccc2o1 [Compound A]
- inhibition of Akt phosphorylation at serine 473 ([1]; FIG. 12A): inhibition of Akt phosphorylation at serine 473
- inhibition of the PI3K pathway in cell lines with elevated PI3K α activity ([1]; MDA-MB-361, MDA-MB-453, SKBr3 breast cancer cells, FIG. 11): inhibition of the PI3K pathway
- inhibition of proliferation of tumor cells [2]: preferentially inhibits proliferation
- inhibition of the PI3K pathway (Western blot, FIG. 11) [3]: inhibition of the PI3K pathway
- tumor weight in breast cancer model (FIG. 9 left panel) [4]: reduction in tumor weight
- inhibition of kinase activity and tumor growth in 786-O model (FIG. 6) [5]: decreased activity
- phosphorylation of downstream targets AKT, S6 and 4E-BP1 (Western blot, FIG. 15) [6]: potently inhibited
- steady-state blood glucose level after the last dose (Day 29) [7]: slight increase
